Reference: US20020031795A1, “Nitrocoumarins for detecting all micro-organisms” (priority 1998, published 2002)
Entries after “also recorded” stand apart in the source; their conditions may differ.

Assays:
Format in all cases: cell-based
[1] = test system: Escherichia coli (NCTC 10418); experiment: Growth of E. coli in Mueller-Hinton broth in the presence of nitrocoumarins (optical density 690 nm)
Protocol: A sample of the 7-nitrocoumarin derivative is dissolved in 4 ml of hot, distilled water. The mass dissolved to make the stock solution is such that the final concentration of the compound in the assay is 0.105 mmol/l. This solution is added to 96 ml of Mueller-Hinton broth and the mixture is sterile-filtered.
(§1) The E. coli was grown for 24 hours at 35° C. on Columbia agar supplemented with sheep blood. The bacteria were then resuspended in sterile, distilled water and their density was adjusted to 0.5 on the MacFarland scale (i.e. about 10^8 cells/ml). This suspension was then diluted 100-fold in sterile Mueller-Hinton broth (i.e. to a final density of about 10^6 cells/ml).
(§2) Fifty microliters of each nitrocoumarin solution plus 50 μl of bacterial suspension were then added to the wells of a microtiter plate. The plates were incubated at 35° C. and the optical density and fluorescence of each well was read every 30 min for a total of 4 hours. Optical density (690 nm) readings were made using an Anthos 2001 spectrophotometer (Labtech International Limited), and fluorescence (excitation at 365 nm and emission at 440 nm) readings were made on a Biolite F1 2001 fluorometer (Labtech International Limited).
The effect of the concentration of 7-nitrocoumarin-3-carboxylic acid on the sensitivity of the assay to detect E. coli (NCTC strain 10418) was investigated at concentrations of the indicator ranging from 0 to 0.262 mmol/l. All other conditions were identical to those described in section A above.

Shigella sonnei = experiment: Reduction of the indicator by wild Enterobacteriaceae strain (fluorescence); conditions: 0.17 mmol/l
Protocol: as §1, §2
(§3) This experiment was designed to investigate whether or not it would be possible to detect Enterobacteriaceae other than E. coli using 7-nitrocoumarin-3-carboxylic acid. The conditions for this experiment were similar to those described for the first experiment (section A).
(§4) Five wild strains belonging to the species Citrobacter diversus, Enterobacter agglomerans, Hafnia alvei, Morganella morganii and Shigella sonnei were tested

Hafnia alvei = experiment: as above; conditions: 0.17 mmol/l
Protocol: as §1, §2, §3, §4

[2] = test system: sixteen different microorganisms; experiment: Growth indicator test on sixteen different microorganisms (summary)
Protocol: This experiment was performed to test 7-nitrocoumarin-3-carboxylic acid on sixteen (16) different types of microorganism, including one yeast species.
A mass of 10 mg of the indicator was dissolved in 4 ml of hot, distilled water and this solution was then added to 96 ml of Trypticase Soy broth. The resultant mixture was sterile-filtered.
All the microorganisms were grown for 24 hours in Trypticase Soy broth at 35° C. Each culture was then diluted 1,000-fold in Trypticase Soy broth and then serial 10-fold dilutions were made in more Trypticase Soy broth until the test aliquot contained no more microbial cells.
The resultant dilutions ranged from 10^−3 to 10^−13.
Fifty microliters of each dilution plus 50 μl of Trypticase Soy broth were added to wells of a microtiter plate with or without 7-nitrocoumarin-3-carboxylic acid.
The plates were read (T zero) and then incubated at 35° C. before being read again after 24 hours. Two different readings were made at each time point: […]
of the fluorescence (excitation at 365 nm and emission at 440 nm), using a Biolite F1 2001 fluorometer (Labtech International Limited), for wells containing 7-nitrocoumarin-3-carboxylic acid.
In order to check the correlation between growth and the fluorescence results, the contents of each well were seeded on Columbia agar supplemented with sheep blood.

O=C(O)c1cc2ccc([N+](=O)[O-])cc2oc1=O [7-nitrocoumarin-3-carboxylic acid]
Optical density (690 nm) ([1]; 0.005 mmol/l, 0 min): 0.000 | Optical density (690 nm) ([1]; 0.005 mmol/l, 30 min): 0.000 | Optical density (690 nm) ([1]; 0.005 mmol/l, 60 min): 0.003 | Optical density (690 nm) ([1]; 0.005 mmol/l, 90 min): 0.011 | Optical density (690 nm) ([1]; 0.005 mmol/l, 120 min): 0.034 | Optical density (690 nm) ([1]; 0.005 mmol/l, 150 min): 0.090 | Optical density (690 nm) ([1]; 0.005 mmol/l, 180 min): 0.155 | Optical density (690 nm) ([1]; 0.005 mmol/l, 210 min): 0.246 | Optical density (690 nm) ([1]; 0.005 mmol/l, 240 min): 0.411 | Optical density (690 nm) ([1]; 0.013 mmol/l, 0 min): 0.000 | Optical density (690 nm) ([1]; 0.013 mmol/l, 30 min): 0.000 | Optical density (690 nm) ([1]; 0.013 mmol/l, 60 min): 0.003 | Optical density (690 nm) ([1]; 0.013 mmol/l, 90 min): 0.011 | Optical density (690 nm) ([1]; 0.013 mmol/l, 120 min): 0.032 | Optical density (690 nm) ([1]; 0.013 mmol/l, 150 min): 0.088 | Optical density (690 nm) ([1]; 0.013 mmol/l, 180 min): 0.149 | Optical density (690 nm) ([1]; 0.013 mmol/l, 210 min): 0.233 | Optical density (690 nm) ([1]; 0.013 mmol/l, 240 min): 0.371 | Optical density (690 nm) ([1]; 0.026 mmol/l, 0 min): 0.000 | Optical density (690 nm) ([1]; 0.026 mmol/l, 30 min): 0.001 | Optical density (690 nm) ([1]; 0.026 mmol/l, 60 min): 0.004 | Optical density (690 nm) ([1]; 0.026 mmol/l, 90 min): 0.011 | Optical density (690 nm) ([1]; 0.026 mmol/l, 120 min): 0.032 | Optical density (690 nm) ([1]; 0.026 mmol/l, 150 min): 0.079 | Optical density (690 nm) ([1]; 0.026 mmol/l, 180 min): 0.201 | Optical density (690 nm) ([1]; 0.026 mmol/l, 210 min): 0.290 | Optical density (690 nm) ([1]; 0.026 mmol/l, 240 min): 0.436 | Optical density (690 nm) ([1]; 0.052 mmol/l, 0 min): 0.000 | Optical density (690 nm) ([1]; 0.052 mmol/l, 30 min): 0.001 | Optical density (690 nm) ([1]; 0.052 mmol/l, 60 min): 0.003 | Optical density (690 nm) ([1]; 0.052 mmol/l, 90 min): 0.011 | Optical density (690 nm) ([1]; 0.052 mmol/l, 120 min): 0.031 | Optical density (690 nm) ([1]; 0.052 mmol/l, 150 min): 0.082 | Optical density (690 nm) ([1]; 0.052 mmol/l, 180 min): 0.153 | Optical density (690 nm) ([1]; 0.052 mmol/l, 210 min): 0.225 | Optical density (690 nm) ([1]; 0.052 mmol/l, 240 min): 0.408 | Inhibitory effect on the growth of E. coli (in words) ([1]; 0.105 mmol/l): no retarded growth; also recorded: does not inhibit E. coli growth | Optical density (690 nm) ([1]; 0.105 mmol/l, 0 min): 0.000 | Optical density (690 nm) ([1]; 0.105 mmol/l, 30 min): 0.000 | Optical density (690 nm) ([1]; 0.105 mmol/l, 60 min): 0.002 | Optical density (690 nm) ([1]; 0.105 mmol/l, 90 min): 0.008 | Optical density (690 nm) ([1]; 0.105 mmol/l, 120 min): 0.026 | Optical density (690 nm) ([1]; 0.105 mmol/l, 150 min): 0.068 | Optical density (690 nm) ([1]; 0.105 mmol/l, 180 min): 0.164 | Optical density (690 nm) ([1]; 0.105 mmol/l, 210 min): 0.227 | Optical density (690 nm) ([1]; 0.105 mmol/l, 240 min): 0.416 | Optical density (690 nm) ([1]; 0.157 mmol/l, 0 min): 0.000 | Optical density (690 nm) ([1]; 0.157 mmol/l, 30 min): −0.001 | Optical density (690 nm) ([1]; 0.157 mmol/l, 60 min): 0.002 | Optical density (690 nm) ([1]; 0.157 mmol/l, 90 min): 0.009 | Optical density (690 nm) ([1]; 0.157 mmol/l, 120 min): 0.027 | Optical density (690 nm) ([1]; 0.157 mmol/l, 150 min): 0.073 | Optical density (690 nm) ([1]; 0.157 mmol/l, 180 min): 0.151 | Optical density (690 nm) ([1]; 0.157 mmol/l, 210 min): 0205 | Optical density (690 nm) ([1]; 0.157 mmol/l, 240 min): 0.372 | Optical density (690 nm) ([1]; 0.210 mmol/l, 0 min): 0.000 | Optical density (690 nm) ([1]; 0.210 mmol/l, 30 min): 0.000 | Optical density (690 nm) ([1]; 0.210 mmol/l, 60 min): 0.003 | Optical density (690 nm) ([1]; 0.210 mmol/l, 90 min): 0.010 | Optical density (690 nm) ([1]; 0.210 mmol/l, 120 min): 0.027 | Optical density (690 nm) ([1]; 0.210 mmol/l, 150 min): 0.072 | Optical density (690 nm) ([1]; 0.210 mmol/l, 180 min): 0.138 | Optical density (690 nm) ([1]; 0.210 mmol/l, 210 min): 0.187 | Optical density (690 nm) ([1]; 0.210 mmol/l, 240 min): 0.346 | Optical density (690 nm) ([1]; 0.262 mmol/l, 0 min): 0.000 | Optical density (690 nm) ([1]; 0.262 mmol/l, 30 min): 0.000 | Optical density (690 nm) ([1]; 0.262 mmol/l, 60 min): 0.002 | Optical density (690 nm) ([1]; 0.262 mmol/l, 90 min): 0.009 | Optical density (690 nm) ([1]; 0.262 mmol/l, 120 min): 0.027 | Optical density (690 nm) ([1]; 0.262 mmol/l, 150 min): 0.069 | Optical density (690 nm) ([1]; 0.262 mmol/l, 180 min): 0.144 | Optical density (690 nm) ([1]; 0.262 mmol/l, 240 min): 0.346 | Effect of the concentration on E. coli growth (in words) ([1]; concentrations from 0 to 0.262 mmol/l): no significant effect | Fluorescent signal (Shigella sonnei; 0 min): 0 | Fluorescent signal (Shigella sonnei; 30 min): −9 | Fluorescent signal (Shigella sonnei; 60 min): 15 | Fluorescent signal (Shigella sonnei; 90 min): 52 | Fluorescent signal (Shigella sonnei; 120 min): 162 | Fluorescent signal (Shigella sonnei; 150 min): 434 | Fluorescent signal (Shigella sonnei; 180 min): 1108 | Fluorescent signal (Shigella sonnei; 210 min): 3095 | Fluorescent signal (Shigella sonnei; 240 min): 8567 | Fluorescent signal (Hafnia alvei; 0 min): 0 | Fluorescent signal (Hafnia alvei; 30 min): −24 | Fluorescent signal (Hafnia alvei; 60 min): −30 | Fluorescent signal (Hafnia alvei; 90 min): 0 | Fluorescent signal (Hafnia alvei; 120 min): 40 | Fluorescent signal (Hafnia alvei; 150 min): 122 | Fluorescent signal (Hafnia alvei; 180 min): 260 | Fluorescent signal (Hafnia alvei; 210 min): 775 | Fluorescent signal (Hafnia alvei; 240 min): 2048 | Correlation of fluorescence readings with microbial growth (in words) ([2]; 24 hours, Trypticase Soy broth): correlate closely with microbial growth patterns for all the species tested | Sensitivity of the assay (in words) ([2]; limiting dilution): capable of detecting a single viable cell
